In patent publication US11084818B2 (HEPO PHARMACEUTICAL CO., LTD., priority 2016, dated 2021):

Assays:
[1] = target: T1, hTLR7 (Homo sapiens, UniProt Q9NYK1); assay: EC50 of GS9620 for hTLR7 as reported in WO2016023511A1; details: in words, from the EC50 values reported in WO2016023511A1
T1 construct: host or cells: HEK-Blue hTLR7 (HEK293-derived reporter line)
T1 sequence (Q9NYK1 27-1049): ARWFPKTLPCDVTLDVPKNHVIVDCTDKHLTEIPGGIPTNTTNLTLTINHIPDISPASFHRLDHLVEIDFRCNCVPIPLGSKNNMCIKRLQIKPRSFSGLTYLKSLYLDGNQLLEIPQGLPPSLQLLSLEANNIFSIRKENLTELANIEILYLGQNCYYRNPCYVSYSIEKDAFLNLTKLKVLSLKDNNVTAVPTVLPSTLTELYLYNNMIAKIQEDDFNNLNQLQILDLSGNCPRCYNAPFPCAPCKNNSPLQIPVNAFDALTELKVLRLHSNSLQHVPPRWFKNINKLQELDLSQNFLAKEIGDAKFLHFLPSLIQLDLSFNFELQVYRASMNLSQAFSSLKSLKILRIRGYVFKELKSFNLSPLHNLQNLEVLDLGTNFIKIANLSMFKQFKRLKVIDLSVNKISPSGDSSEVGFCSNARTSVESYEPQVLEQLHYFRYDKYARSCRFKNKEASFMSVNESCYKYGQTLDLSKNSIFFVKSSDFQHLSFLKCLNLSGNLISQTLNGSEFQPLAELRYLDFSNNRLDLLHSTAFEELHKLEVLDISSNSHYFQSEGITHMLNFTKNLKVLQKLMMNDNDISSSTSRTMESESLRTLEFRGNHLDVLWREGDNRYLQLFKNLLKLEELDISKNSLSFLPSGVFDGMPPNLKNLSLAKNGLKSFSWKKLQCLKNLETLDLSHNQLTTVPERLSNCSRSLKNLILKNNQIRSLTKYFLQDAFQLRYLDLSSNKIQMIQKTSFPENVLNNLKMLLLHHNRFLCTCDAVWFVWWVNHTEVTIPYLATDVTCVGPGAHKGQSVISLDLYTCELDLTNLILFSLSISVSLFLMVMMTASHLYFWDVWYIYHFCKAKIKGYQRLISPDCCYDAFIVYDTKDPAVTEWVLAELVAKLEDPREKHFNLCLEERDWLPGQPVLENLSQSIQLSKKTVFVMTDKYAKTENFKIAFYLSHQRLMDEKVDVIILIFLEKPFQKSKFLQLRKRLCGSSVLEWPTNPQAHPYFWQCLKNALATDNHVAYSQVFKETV

[2] = target: T1, hTLR7; assay: Activation activity test of hTLR7 (HEK-Blue hTLR7 cells, QUANTI-Blue OD650); assay type: cell-based; details: 24 hours incubation, read-out: TLR7 (EC50)
[3] = target: T2, hTLR8 (Homo sapiens, UniProt Q9NR97); assay: Activation activity test of hTLR8 (HEK-Blue hTLR8 cells, QUANTI-Blue OD650); assay type: cell-based; details: HEK-Blue hTLR8 cells, 24 hours incubation; read-out: TLR8 (EC50)
T2 construct: host or cells: HEK-Blue hTLR8 (HEK293-derived reporter line)
T2 sequence (Q9NR97 27-1041): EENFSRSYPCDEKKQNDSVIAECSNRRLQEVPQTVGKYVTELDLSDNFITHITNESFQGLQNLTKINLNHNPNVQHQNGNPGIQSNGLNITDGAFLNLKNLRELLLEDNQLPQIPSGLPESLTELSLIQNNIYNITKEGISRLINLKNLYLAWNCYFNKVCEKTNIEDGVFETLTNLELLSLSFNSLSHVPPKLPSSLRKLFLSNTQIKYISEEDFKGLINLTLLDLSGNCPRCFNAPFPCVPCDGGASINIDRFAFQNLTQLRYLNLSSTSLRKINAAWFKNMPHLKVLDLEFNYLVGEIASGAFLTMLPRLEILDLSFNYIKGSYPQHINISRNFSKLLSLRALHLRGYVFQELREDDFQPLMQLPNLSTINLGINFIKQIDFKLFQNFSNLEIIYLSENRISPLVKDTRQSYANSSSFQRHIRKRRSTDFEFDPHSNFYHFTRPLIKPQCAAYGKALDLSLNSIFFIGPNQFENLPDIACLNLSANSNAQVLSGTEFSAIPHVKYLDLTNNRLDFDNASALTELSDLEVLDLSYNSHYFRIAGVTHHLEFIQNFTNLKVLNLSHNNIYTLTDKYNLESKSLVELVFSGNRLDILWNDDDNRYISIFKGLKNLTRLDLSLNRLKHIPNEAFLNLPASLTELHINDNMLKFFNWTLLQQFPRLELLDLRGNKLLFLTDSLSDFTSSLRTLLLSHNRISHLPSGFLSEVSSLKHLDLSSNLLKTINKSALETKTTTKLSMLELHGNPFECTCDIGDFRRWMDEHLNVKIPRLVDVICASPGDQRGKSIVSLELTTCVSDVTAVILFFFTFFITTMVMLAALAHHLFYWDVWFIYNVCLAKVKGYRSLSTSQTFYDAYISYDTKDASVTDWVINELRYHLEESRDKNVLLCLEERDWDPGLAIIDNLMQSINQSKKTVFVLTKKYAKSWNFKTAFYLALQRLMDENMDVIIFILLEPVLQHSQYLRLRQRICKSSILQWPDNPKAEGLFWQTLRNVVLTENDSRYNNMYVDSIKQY

| Compound | EC50 [2] [µM] | EC50 [3] [µM] | selectivity to TLR7 [1] |
| --- | --- | --- | --- |
| CCCCOc1nc(N)c2c(n1)N(Cc1cccc(CN3CCCC3)c1)CC(=O)N2 [GS9620] |  |  | poor |
| COCCOc1ncc2[nH]c(=O)n(Cc3ccc(CN4CC[C@@H](O)C4)cc3)c2n1 [Example 6, (R)-9-(4-((3-hydroxypyrrolidin-1-yl)methyl)benzyl)-2-(2-methoxyethoxy)-7,9-dihydro-8H-purin-8-one] | 10 to 100 | > 100 |  |
| COCCOc1ncc2[nH]c(=O)n(Cc3ccc(CN4CCC4)cc3)c2n1 [Example 2, 2-(2-methoxyethoxy)-9-(4-(azetidin-1-ylmethyl)benzyl)-7,9-dihydro-8H-purin-8-one] | 10 to 100 | > 100 |  |

More lines, main results first:

| EC50 [2] [µM] | EC50 [3] [µM] | Compound | selectivity to TLR7 [1] |
| --- | --- | --- | --- |
| 1 to 10 | > 100 | COCCOc1ncc2[nH]c(=O)n(Cc3ccc(CN4CC5CCC4C5)cc3)c2n1 (centres unmarked) [Example 13, 2-(2-methoxyethoxy)-9-(4-((2-aza-bicyclo[2,2,1]heptan-2-yl)methyl)benzyl)-7,9-dihydro-8H-purin-8-one] |  |
| 1 to 10 | > 100 | CCC(c1ccc(Cn2c(=O)[nH]c3cnc(OCCOC)nc32)cc1)N1CCCC1 (centres unmarked) [Example 17] |  |
| 10 to 100 | > 100 | COCCOc1ncc2[nH]c(=O)n(Cc3cccc(CN4CCCCC4)c3)c2n1 [Example 20, 2-(2-methoxyethoxy)-9-(3-(piperidin-1-ylmethyl)benzyl)-7,9-dihydro-8H-purin-8-one] |  |
